# Measured values as given in patent US9409905B2, “Antibacterial compounds and methods for use” (PTC THERAPEUTICS, INC., priority 2011, dated 2016).
# Tests used:
# [1] = tested on: Escherichia coli (E. coli) BAS849; experiment: Antibacterial activity, microbroth dilution MIC (Table 1); assay type: cell-based; details: microbroth dilution, super sensitive Gram-negative E. coli BAS849, read-out: MIC, BAS849
# Description: (§1) The antibacterial activity from a microbroth dilution method may be presented as the minimum inhibitory concentration (MIC in μg/mL). The MIC value is the lowest concentration of drug which prevents macroscopically visible growth under test conditions.
# (§2) Antibacterial activity of test compounds against the super sensitive Gram-negative Escherichia coli (E. coli) BAS849 bacterium, the control Gram-negative E. coli 25922 strain and the Gram-positive Staphylococcus aureus (S. aureus) 29213 bacterium are shown in Table 1.
# [2] = tested on: Staphylococcus aureus (S. aureus) 29213; experiment: as above; assay type: cell-based; details: microbroth dilution, Gram-positive S. aureus 29213, read-out: MIC, 29213
# Description: as §1, §2
# E. coli 25922 = experiment: as above; assay type: cell-based, Escherichia coli; details: Escherichia coli; microbroth dilution; control Gram-negative E. coli 25922 strain; read-out: MIC, 25922
# Description: as §1, §2
# E. coli LZ3111 = experiment: Antibacterial activity, MIC, quinolone resistant strain (Table 2); assay type: cell-based; details: Escherichia coli, LZ3111, read-out: MIC LZ3111
# Description: as §1
# Mutations in these regions are known to confer a high level resistance to the quinolone class of antibiotics.
SMILES,MIC [1] [µg/mL],MIC [2] [µg/mL],MIC (E. coli 25922) [µg/mL],MIC (E. coli LZ3111) [µg/mL]
"Cn1c(CN2CCC2)cc2cc(-c3[nH]c(=O)c(C(=O)O)c(O)c3-c3ccc(F)cc3)ccc21 [Cpd 312, 6-(2-(azetidin-1-ylmethyl)-1-methyl-1H-indol-5-yl)-5-(4-fluorophenyl)-4-hydroxy-2-oxo-1,2-dihydropyridine-3-carboxylic acid]",< 1,12.5 to 150,3.5 to 12.5,12.5 to 150
"CCc1cc(C(=O)O)c(=O)[nH]c1-c1cc2cc(CN3CCOCC3)n(C)c2cc1C [Cpd 94, 6-(1,6-dimethyl-2-(morpholinomethyl)-1H-indol-5-yl)-5-ethyl-2-oxo-1,2-dihydropyridine-3-carboxylic acid]",12.5 to 150,12.5 to 150,12.5 to 150,12.5 to 150
"CCc1cc(C(=O)O)c(=O)[nH]c1-c1cc(F)c2c(c1)cc(CN(CC)CC)n2C [Cpd 101, 6-(2-((diethylamino)methyl)-7-fluoro-1-methyl-1H-indol-5-yl)-5-ethyl-2-oxo-1,2-dihydropyridine-3-carboxylic acid]",< 1,12.5 to 150,3.5 to 12.5,12.5 to 150
"CCc1cc(C(=O)O)c(=O)[nH]c1-c1ccc2c(c1)cc(CN1C[C@H]3CCC[C@@H](N(C)C)[C@H]3C1)n2C [Cpd 149, 6-(2-(((3aR,4R,7aS)-4-(dimethylamino)-1H-isoindol-2(3H,3aH,4H,5H,6H,7H,7aH)-yl)methyl)-1-methyl-1H-indol-5-yl)-5-ethyl-2-oxo-1,2-dihydropyridine-3-carboxylic acid]",< 1,12.5 to 150,1 to 3.5,12.5 to 150
"CCc1cc(C(=O)O)c(=O)[nH]c1-c1ccc2c(c1)c(CN(C)C)cn2C [Cpd 75, 6-(3-((dimethylamino)methyl)-1-methyl-1H-indol-5-yl)-5-ethyl-2-oxo-1,2-dihydropyridine-3-carboxylic acid]",12.5 to 150,12.5 to 150,12.5 to 150,12.5 to 150
"CCc1c(-c2ccc3c(c2)c2c(n3C)CCCC2)[nH]c(=O)c(C(=O)O)c1O [Cpd 28, 5-ethyl-4-hydroxy-6-(9-methyl-2,3,4,9-tetrahydro-1H-carbazol-6-yl)-2-oxo-1,2-dihydropyridine-3-carboxylic acid]",12.5 to 150,< 1,12.5 to 150,12.5 to 150
"CCc1cc(C(=O)O)c(=O)[nH]c1-c1ccc2c(c1)c(C(N)=O)cn2C [Cpd 73, 6-(3-carbamoyl-1-methyl-1H-indol-5-yl)-5-ethyl-2-oxo-1,2-dihydropyridine-3-carboxylic acid]",12.5 to 150,12.5 to 150,12.5 to 150,12.5 to 150
"CCc1c(-c2ccc3c(c2)c(C#N)c(N2CCCC2)n3C)[nH]c(=O)c(C(=O)O)c1O [Cpd 360, 6-(3-cyano-1-methyl-2-(pyrrolidin-1-yl)-1H-indol-5-yl)-5-ethyl-4-hydroxy-2-oxo-1,2-dihydropyridine-3-carboxylic acid]",3.5 to 12.5,1 to 3.5,12.5 to 150,12.5 to 150
"CCc1cc(C(=O)O)c(=O)[nH]c1-c1ccc2nc(CN3CCCCC3)cn2c1.Cl.Cl [Cpd 62, 5-ethyl-2-oxo-6-(2-(piperidin-1-ylmethyl)imidazo[1,2-a]pyridin-6-yl)-1,2-dihydropyridine-3-carboxylic acid dihydrochloride]",12.5 to 150,12.5 to 150,12.5 to 150,12.5 to 150
"CCc1c(-c2ccc3c(c2)cc(CN(C)Cc2cccnc2)n3C)[nH]c(=O)c(C(=O)O)c1O.Cl [Cpd 224, 5-ethyl-4-hydroxy-6-(1-methyl-2-((methyl(pyridin-3-ylmethyl)amino)methyl)-1H-indol-5-yl)-2-oxo-1,2-dihydropyridine-3-carboxylic acid hydrochloride]",< 1,3.5 to 12.5,1 to 3.5,12.5 to 150
"CCc1cc(C(=O)O)c(=O)[nH]c1-c1ccc2c(c1)cc(C1CNCCN1C)n2C.Cl.Cl (stereo not drawn) [Cpd 71, 5-ethyl-6-(1-methyl-2-(1-methylpiperazin-2-yl)-1H-indol-5-yl)-2-oxo-1,2-dihydropyridine-3-carboxylic acid dihydrochloride]",3.5 to 12.5,12.5 to 150,12.5 to 150,12.5 to 150
"CCc1c(-c2ccc3c(c2)cc(CNC(C)c2ccncc2)n3C)[nH]c(=O)c(C(=O)O)c1O.Cl (stereo not drawn) [Cpd 226, 5-ethyl-4-hydroxy-6-(1-methyl-2-((1-(pyridin-4-yl)ethylamino)methyl)-1H-indol-5-yl)-2-oxo-1,2-dihydropyridine-3-carboxylic acid hydrochloride]",< 1,1 to 3.5,1 to 3.5,12.5 to 150
"CCc1cc(C(=O)O)c(=O)[nH]c1-c1ccc2nc(CN(C)C)cn2c1.Cl.Cl [Cpd 60, 6-(2-((dimethylamino)methyl)imidazo[1,2-a]pyridin-6-yl)-5-ethyl-2-oxo-1,2-dihydropyridine-3-carboxylic acid dihydrochloride]",12.5 to 150,12.5 to 150,12.5 to 150,12.5 to 150
"CCc1cc(C(=O)O)c(=O)[nH]c1-c1cc2cc(CN(C)C)n(C)c2s1.Cl [Cpd 65, 6-(5-((dimethylamino)methyl)-6-methyl-6H-thieno[2,3-b]pyrrol-2-yl)-5-ethyl-2-oxo-1,2-dihydropyridine-3-carboxylic acid hydrochloride]",< 1,12.5 to 150,3.5 to 12.5,12.5 to 150
"CCc1c(-c2ccc3c(c2)cc(CN2CCC(C(=O)N(C)C)C2)n3C)[nH]c(=O)c(C(=O)O)c1O (stereo not drawn) [Cpd 191, 6-(2-((3-(dimethylcarbamoyl)pyrrolidin-1-yl)methyl)-1-methyl-1H-indol-5-yl)-5-ethyl-4-hydroxy-2-oxo-1,2-dihydropyridine-3-carboxylic acid]",< 1,3.5 to 12.5,1 to 3.5,12.5 to 150
"CCc1c(-c2ccc3c(c2)cc(C(C)(C)N(C)C)n3C)[nH]c(=O)c(C(=O)O)c1O [Cpd 308, 6-(2-(2-(dimethylamino)propan-2-yl)-1-methyl-1H-indol-5-yl)-5-ethyl-4-hydroxy-2-oxo-1,2-dihydropyridine-3-carboxylic acid]",< 1,1 to 3.5,12.5 to 150,12.5 to 150
"CCc1cc(C(=O)O)c(=O)[nH]c1-c1cc(F)c2c(c1)cc(CN1CCCC1)n2C [Cpd 97, 5-ethyl-6-(7-fluoro-1-methyl-2-(pyrrolidin-1-ylmethyl)-1H-indol-5-yl)-2-oxo-1,2-dihydropyridine-3-carboxylic acid]",< 1,12.5 to 150,1 to 3.5,12.5 to 150
"CCc1cc(C(=O)O)c(=O)[nH]c1-c1cc(C)c2c(c1)cc(CN(CC)CC)n2C [Cpd 104, 6-(2-((diethylamino)methyl)-1,7-dimethyl-1H-indol-5-yl)-5-ethyl-2-oxo-1,2-dihydropyridine-3-carboxylic acid]",< 1,12.5 to 150,3.5 to 12.5,12.5 to 150
"CCc1cc(C(=O)O)c(=O)[nH]c1-c1ccc2c(c1)cc([C@H]1CCCN1C)n2C [Cpd 68, (R)-5-ethyl-6-(1-methyl-2-(1-methylpyrrolidin-2-yl)-1H-indol-5-yl)-2-oxo-1,2-dihydropyridine-3-carboxylic acid]",< 1,12.5 to 150,1 to 3.5,12.5 to 150
"CCc1c(-c2ccc3c(c2)cc(CN2C[C@@H]4[C@H](C2)[C@H]4N(Cc2ccccc2)Cc2ccccc2)n3C)[nH]c(=O)c(C(=O)O)c1O [Cpd 196, 6-(2-(((1R,5S,6s)-6-(dibenzylamino)-3-azabicyclo[3.1.0]hexan-3-yl)methyl)-1-methyl-1H-indol-5-yl)-5-ethyl-4-hydroxy-2-oxo-1,2-dihydropyridine-3-carboxylic acid]",3.5 to 12.5,12.5 to 150,12.5 to 150,12.5 to 150
"CCc1cc(C(=O)O)c(=O)[nH]c1-c1cc(F)c2c(c1)cc(CN1CCOCC1)n2C [Cpd 98, 5-ethyl-6-(7-fluoro-1-methyl-2-(morpholinomethyl)-1H-indol-5-yl)-2-oxo-1,2-dihydropyridine-3-carboxylic acid]",< 1,12.5 to 150,3.5 to 12.5,12.5 to 150
"CCc1c(-c2ccc3c(c2)cc(CN[C@@H](C)C(F)(F)F)n3C)[nH]c(=O)c(C(=O)O)c1O [Cpd 273, (S)-5-ethyl-4-hydroxy-6-(1-methyl-2-((1,1,1-trifluoropropan-2-ylamino)methyl)-1H-indol-5-yl)-2-oxo-1,2-dihydropyridine-3-carboxylic acid]",< 1,3.5 to 12.5,12.5 to 150,12.5 to 150
"CCc1cc(C(=O)O)c(=O)[nH]c1-c1ccc2c(c1)cc(CN1CCN(C(C)=O)CC1)n2C [Cpd 144, 6-(2-((4-acetylpiperazin-1-yl)methyl)-1-methyl-1H-indol-5-yl)-5-ethyl-2-oxo-1,2-dihydropyridine-3-carboxylic acid]",< 1,12.5 to 150,3.5 to 12.5,12.5 to 150
"CCc1c(-c2ccc3c(c2)cc(CN(C)Cc2ccncc2)n3C)[nH]c(=O)c(C(=O)O)c1O.Cl [Cpd 225, 5-ethyl-4-hydroxy-6-(1-methyl-2-((methyl(pyridin-4-ylmethyl)amino)methyl)-1H-indol-5-yl)-2-oxo-1,2-dihydropyridine-3-carboxylic acid hydrochloride]",< 1,3.5 to 12.5,3.5 to 12.5,12.5 to 150
